For 23 molecules, IC50 results are on record in patent publication US20240351997A1, “NOVEL PARP7 INHIBITOR AND USE THEREOF” (SHANGHAI QILU PHARMACEUTICAL RESEARCH AND DEVELOPMENT …, priority 2021, published 2024).

Chain of PARP7 (Q7Z3E1 whole entry): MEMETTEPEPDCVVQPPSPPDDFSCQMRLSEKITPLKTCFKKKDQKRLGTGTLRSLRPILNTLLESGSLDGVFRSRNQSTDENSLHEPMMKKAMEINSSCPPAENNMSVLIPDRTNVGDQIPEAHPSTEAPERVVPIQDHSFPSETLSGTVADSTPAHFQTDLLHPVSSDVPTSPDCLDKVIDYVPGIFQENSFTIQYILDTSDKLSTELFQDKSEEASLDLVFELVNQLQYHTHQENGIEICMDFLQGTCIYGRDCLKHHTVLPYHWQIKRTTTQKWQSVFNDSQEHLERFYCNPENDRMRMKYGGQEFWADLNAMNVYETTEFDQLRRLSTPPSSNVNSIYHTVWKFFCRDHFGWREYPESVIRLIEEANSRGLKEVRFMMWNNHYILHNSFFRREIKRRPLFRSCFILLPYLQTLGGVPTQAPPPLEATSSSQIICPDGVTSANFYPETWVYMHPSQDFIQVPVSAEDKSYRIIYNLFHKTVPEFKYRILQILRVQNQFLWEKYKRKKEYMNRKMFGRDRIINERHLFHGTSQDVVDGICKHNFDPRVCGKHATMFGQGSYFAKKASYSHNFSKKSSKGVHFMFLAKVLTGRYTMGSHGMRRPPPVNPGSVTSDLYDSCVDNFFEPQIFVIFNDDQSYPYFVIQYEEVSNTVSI

The assay has as its target PARP7 (Homo sapiens (Human), UniProt Q7Z3E1). The assay is described as follows: In vitro enzymology experiment of PARP7 (enzymatic inhibition). The class given is biochemical. A digest of the protocol:
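Histone-coated plate ADP-ribosylation format: compound preincubated 10 min at room temperature with preincubated (25 °C, 10 min) enzyme mixture; incorporated biotin detected by streptavidin-HRP and QuantaRed fluorescence (Ex550/Em620).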
Broadly, the IC50 is the concentration that inhibits the measured activity by half. Read a low IC50 as greater potency in that assay. In turn, `CC(Cc1c[nH]c(=O)c2ccccc12)OC(=O)N1CCN(c2ncc(C(F)(F)F)cn2)CC1` (centres unmarked) [Example 102, 1-(1-Oxo-1,2-dihydroisoquinolin-4-yl)propan-2-yl 4-(5-(trifluoromethyl)pyrimidin-2-yl)piperazine-1-carboxylate] displayed an IC50 of 0.95 nM. That is a sub-nanomolar value.

As for `Cc1cnc(N2[C@H](C)CN(C(=O)OCCc3c[nH]c(=O)c(C(F)(F)F)c3)C[C@@H]2C)nc1` [Example 165, 2-(6-Oxo-5-(trifluoromethyl)-1,6-dihydropyridin-3-yl)ethyl (3S,5R)-3,5-dimethyl-4-(5-methylpyrimidin-2-yl)piperazine-1-carboxylate], half-maximal inhibition (IC50) was put at 1 nM. As to `C[C@@H](Cc1c[nH]c(=O)c(C(F)(F)F)c1)OC(=O)N1CC2CN(c3ncc(C(F)(F)F)cn3)CC2C1` (stereo partly drawn) [Example 77, (S)-1-(6-Oxo-5-(trifluoromethyl)-1,6-dihydropyridin-3-yl)propan-2-yl 5-(5-(trifluoromethyl)pyrimidin-2-yl) hexahydropyrrolo[3,4-c]pyrrole-2(1H)-carboxylate], inhibition was half-maximal at 2.15 nM (IC50). The molecule `O=C(CCNc1c[nH]c(=O)c(C(F)(F)F)c1)N1CCN(c2ncc(C(F)(F)F)cn2)CC1` [Example 31, 5-((3-Oxo-3-(4-(5-(trifluoromethyl)pyrimidin-2-yl)piperazin-1-yl)propyl)amino)-3-(trifluoromethyl)pyridin-2(1H)-one] gave an IC50 of 1.19 nM. In the case of `C[C@@H](Cc1c[nH]c(=O)c(C(F)(F)F)c1)OC(=O)N[C@H]1CCN(c2ncc(C(F)(F)F)cn2)C1` [Example 51, (S)-1-(6-Oxo-5-(trifluoromethyl)-1,6-dihydropyridin-3-yl)propan-2-yl ((S)-1-(5-(trifluoromethyl)pyrimidin-2-yl)pyrrolidin-3-yl)carbamate], the IC50 came out at 1.34 nM. For `C[C@@H](Cc1c[nH]c(=O)c(C(F)(F)F)c1)OC(=O)N1CCN(c2ncc(C(F)(F)F)cn2)[C@@H](CO)C1` [Example 73, (S)-1-(6-Oxo-5-(trifluoromethyl)-1,6-dihydropyridin-3-yl)propan-2-yl (R)-3-(hydroxymethyl)-4-(5-(trifluoromethyl)pyrimidin-2-yl)piperazine-1-carboxylate], inhibition was half-maximal at 0.75 nM (IC50). The molecule `O=C(COCC1CCCC1c1c[nH]c(=O)c(C(F)(F)F)c1)N1CCN(c2ncc(C(F)(F)F)cn2)CC1` (centres unmarked) [Example 58, 5-(2-((2-Oxo-2-(4-(5-(trifluoromethyl)pyrimidin-2-yl)piperazin-1-yl)ethoxy)methyl)cyclopentyl)-3-(trifluoromethyl)pyridin-2(1H)-one] had an IC50 of 3.18 nM.

On to `C[C@H]1CN(C(=O)OCCc2c[nH]c(=O)c(C(F)(F)F)c2)CCN1c1ncc(C(F)(F)F)cn1` [Example 113, 2-(6-Oxo-5-(trifluoromethyl)-1,6-dihydropyridin-3-yl)ethyl (S)-3-methyl-4-(5-(trifluoromethyl)pyrimidin-2-yl)piperazine-1-carboxylate], for which the IC50 was 0.65 nM.

On to `C[C@@H](Cc1c[nH]c(=O)c(C(F)(F)F)c1)OC(=O)N1CCN(c2ccc(C(F)(F)F)cn2)CC1` [Example 86, (S)-1-(6-Oxo-5-(trifluoromethyl)-1,6-dihydropyridin-3-yl)propan-2-yl 4-(5-(trifluoromethyl)pyridin-2-yl)piperazine-1-carboxylate], for which the IC50 was found to be 0.6 nM. For the molecule `O=C(CCOC[C@@H]1CCCN1c1c[nH]c(=O)c(C(F)(F)F)c1)N1CCN(c2ncc(C(F)(F)F)cn2)CC1` [Example 9, (S)-5-(2-((3-Oxo-3-(4-(5-(trifluoromethyl)pyrimidin-2-yl)piperazin-1-yl)propoxy)methyl)pyrrolidin-1-yl)-3-(trifluoromethyl)pyridin-2(1H)-one], 7.6 nM corresponded to half-maximal inhibition (IC50). This IC50 lies about 13-fold higher than the previous one. Take `O=C(Oc1cccc(-c2c[nH]c(=O)c(C(F)(F)F)c2)c1)N1CCN(c2ncc(C(F)(F)F)cn2)CC1` [Example 95, 3-(6-Oxo-5-(trifluoromethyl)-1,6-dihydropyridin-3-yl)phenyl 4-(5-(trifluoromethyl)pyrimidin-2-yl)piperazine-1-carboxylate]: the IC50 is 0.72 nM. For the molecule `CN(CCc1c[nH]c(=O)c(C(F)(F)F)c1)C(=O)N1CCN(c2ncc(C(F)(F)F)cn2)CC1` [Example 115, N-Methyl-N-(2-(6-oxo-5-(trifluoromethyl)-1,6-dihydropyridin-3-yl)ethyl)-4-(5-(trifluoromethyl)pyrimidin-2-yl)piperazine-1-carboxamide], it took 1 nM to reach half-maximal inhibition (IC50). Take `O=C(c1cccc(Cc2c[nH]c(=O)c(C(F)(F)F)c2)c1)N1CCN(c2ncc(C(F)(F)F)cn2)CC1` [Example 30, 3-(Trifluoromethyl)-5-(3-(4-(5-(trifluoromethyl)pyrimidin-2-yl)piperazine-1-carbonyl)benzyl)pyridin-2(1H)-one]: 0.9 nM corresponded to half-maximal inhibition (IC50). The IC50 values of the last two molecules are within 1.5-fold of each other. The molecule `CC(COC(=O)N1CCN(c2ncc(C(F)(F)F)cn2)CC1)c1c[nH]c(=O)c(C(F)(F)F)c1` (centres unmarked) [Example 25, 2-(6-Oxo-5-(trifluoromethyl)-1,6-dihydropyridin-3-yl)propyl 4-(5-(trifluoromethyl)pyrimidin-2-yl)piperazine-1-carboxylate] had an IC50 of 0.8 nM. `C[C@@H](Cc1c[nH]c(=O)c(C(F)(F)F)c1)OC(=O)N1CCN(C(=O)C2CC2)CC1` [Example 90, (S)-1-(6-Oxo-5-(trifluoromethyl)-1,6-dihydropyridin-3-yl)propan-2-yl 4-(cyclopropanecarbonyl)piperazine-1-carboxylate] yielded an IC50 of 1.08 nM.

In turn, `C[C@@H](Cc1c[nH]c(=O)c(C(F)(F)F)c1)OC(=O)N1CCN(c2ncc(S(C)(=O)=O)cn2)CC1` [Example 101, (S)-1-(6-Oxo-5-(trifluoromethyl)-1,6-dihydropyridin-3-yl)propan-2-yl 4-(5-(methylsulfonyl)pyrimidin-2-yl)piperazine-1-carboxylate] gave an IC50 of 0.67 nM.

Take `C[C@@H](Cc1c[nH]c(=O)c(C(F)(F)F)c1)OC(=O)N1CC=C(c2ccc(C(F)(F)F)cn2)CC1` [Example 98, (S)-1-(6-Oxo-5-(trifluoromethyl)-1,6-dihydropyridin-3-yl)propan-2-yl 5-(trifluoromethyl)-3′,6′-dihydro-[2,4′-bipyridine]-1′(2′H)-carboxylate]: the IC50 came out at 0.83 nM. In turn, `C[C@@H]1CN(c2ncc(C3CC3)cn2)C[C@@H](C)N1C(=O)O[C@@H](C)Cc1c[nH]c(=O)c(C(F)(F)F)c1` [Example 175, (S)-1-(6-Oxo-5-(trifluoromethyl)-1,6-dihydropyridin-3-yl)propan-2-yl (2R,6R)-4-(5-cyclopropylpyrimidin-2-yl)-2,6-dimethylpiperazine-1-carboxylate] showed an IC50 of 0.76 nM. For the molecule `CC[C@H]1CN(C(=O)OCCc2c[nH]c(=O)c(C(F)(F)F)c2)CCN1c1ncc(C(F)(F)F)cn1` [Example 124, 2-(6-Oxo-5-(trifluoromethyl)-1,6-dihydropyridin-3-yl)ethyl (S)-3-ethyl-4-(5-(trifluoromethyl)pyrimidin-2-yl)piperazine-1-carboxylate], the IC50 came out at 0.48 nM. This IC50 lies about 1.6-fold lower than the previous one. As for `O=C(c1ccc(F)c(Cc2c[nH]c(=O)c(C(F)(F)F)c2)c1)N1CCN(c2ncc(C(F)(F)F)cn2)CC1` [Example 68, 5-(2-Fluoro-5-(4-(5-(trifluoromethyl)pyrimidin-2-yl)piperazine-1-carbonyl)benzyl)-3-(trifluoromethyl)pyridin-2(1H)-one], the IC50 came to 1.11 nM.

Molecule `C[C@@H](Cc1c[nH]c(=O)c(C(F)(F)F)c1)OC(=O)N1CCN(c2ncc(C(F)(F)F)cn2)C[C@H]1CO` [Example 79, (S)-1-(6-Oxo-5-(trifluoromethyl)-1,6-dihydropyridin-3-yl)propan-2-yl (S)-2-(hydroxymethyl)-4-(5-(trifluoromethyl)pyrimidin-2-yl)piperazine-1-carboxylate] gave an IC50 of 0.68 nM. In turn, `O=C(Oc1ccnc(-c2c[nH]c(=O)c(C(F)(F)F)c2)c1)N1CCN(c2ncc(C(F)(F)F)cn2)CC1` [Example 137, 6′-Oxo-5′-(trifluoromethyl)-1′,6′-dihydro-[2,3′-bipyridin]-4-yl 4-(5-(trifluoromethyl)pyrimidin-2-yl)piperazine-1-carboxylate] returned an IC50 of 2.4 nM. `O=C(OCCc1c[nH]c(=O)c(C(F)(F)F)c1)N1CCN(c2ncc(C(F)(F)F)cn2)[C@@H](CO)C1` [Example 104, 2-(6-Oxo-5-(trifluoromethyl)-1,6-dihydropyridin-3-yl)ethyl (R)-3-(hydroxymethyl)-4-(5-(trifluoromethyl)pyrimidin-2-yl)piperazine-1-carboxylate] had an IC50 of 0.53 nM. This IC50 lies about 4.5-fold lower than the previous one.
